# According to patent US11701368B2 (EYE CO PTY LTD, priority 2018, dated 2023):
# Where two headings read alike, the source gives them in different places.
# Key:
# [1] = Batch production: Av drug content per vial (RGA40/1); format: physicochemical; conditions: batch after freeze drying and gamma sterilization; specification 20.0 ± 2.0 mg
# [2] = Stability of drug aqueous solutions under gamma irradiation; format: physicochemical; conditions: saturated aqueous solution, ~25 kGy at ambient temperature
# Description: Preferably, the study materials are sterile, at least to a large degree for preclinical studies. In the absence of a facility for complete aseptic manufacture, in order to sterilize the suspensions there are two possible approaches foreseen—autoclaving the final suspensions in ‘vial’, or gamma sterilization. Consequently, in order to initially test the resistance of the drug to degradation in the ‘wet’ environment, drug in saturated solutions were prepared as for the storage stability studies above and subjected to autoclave conditions (121° C./30 min) or gamma irradiation (˜25 kGy at ambient temperature).
# Gamma irradiation was conducted at a firm in Melbourne (Steritech; 160 South Gippsland Hwy, Dandenong Sth) and QC certificates provided verifying dose of gamma irradiation received. The samples were exposed to 25 kGy radiation, which severely discoloured the vials, in long term this method may be very suitable when an appropriate glass container, resistant to gamma rays, is used for sample preparation.
# [3] = Stability of drug aqueous solutions under autoclave conditions; format: physicochemical; conditions: saturated solution, 121° C./30 min
# From the text: Preferably, the study materials are sterile, at least to a large degree for preclinical studies. In the absence of a facility for complete aseptic manufacture, in order to sterilize the suspensions there are two possible approaches foreseen—autoclaving the final suspensions in ‘vial’, or gamma sterilization.
# [4] = Particle sizing by laser light scattering; format: physicochemical; conditions: as received powder
# [5] = Batch production: particle size (RGA40/2); format: physicochemical; conditions: for Particle Size D(0.5): specification <20; for Particle Size D(0.9): specification <30
# [6] = Drug storage stability in saline (accelerated stability trial)
# From the text: Consequently it was felt to be important to characterise the drug stability over time in aqueous solution as an indicator of likely issues with drug content and/or degradation products in the suspensions on storage.
# [7] = Batch production: pH (RGA40/3); format: physicochemical; conditions: specification 6.0-8.0
# [8] = target: T1, mineralocorticoid receptor (Homo sapiens, UniProt P08235); assay: Mineralocorticoid receptor activity (MR potency) of corticosterones; conditions: relative potency, hydrocortisone (cortisol) = 1
# T1 sequence (P08235 1-984): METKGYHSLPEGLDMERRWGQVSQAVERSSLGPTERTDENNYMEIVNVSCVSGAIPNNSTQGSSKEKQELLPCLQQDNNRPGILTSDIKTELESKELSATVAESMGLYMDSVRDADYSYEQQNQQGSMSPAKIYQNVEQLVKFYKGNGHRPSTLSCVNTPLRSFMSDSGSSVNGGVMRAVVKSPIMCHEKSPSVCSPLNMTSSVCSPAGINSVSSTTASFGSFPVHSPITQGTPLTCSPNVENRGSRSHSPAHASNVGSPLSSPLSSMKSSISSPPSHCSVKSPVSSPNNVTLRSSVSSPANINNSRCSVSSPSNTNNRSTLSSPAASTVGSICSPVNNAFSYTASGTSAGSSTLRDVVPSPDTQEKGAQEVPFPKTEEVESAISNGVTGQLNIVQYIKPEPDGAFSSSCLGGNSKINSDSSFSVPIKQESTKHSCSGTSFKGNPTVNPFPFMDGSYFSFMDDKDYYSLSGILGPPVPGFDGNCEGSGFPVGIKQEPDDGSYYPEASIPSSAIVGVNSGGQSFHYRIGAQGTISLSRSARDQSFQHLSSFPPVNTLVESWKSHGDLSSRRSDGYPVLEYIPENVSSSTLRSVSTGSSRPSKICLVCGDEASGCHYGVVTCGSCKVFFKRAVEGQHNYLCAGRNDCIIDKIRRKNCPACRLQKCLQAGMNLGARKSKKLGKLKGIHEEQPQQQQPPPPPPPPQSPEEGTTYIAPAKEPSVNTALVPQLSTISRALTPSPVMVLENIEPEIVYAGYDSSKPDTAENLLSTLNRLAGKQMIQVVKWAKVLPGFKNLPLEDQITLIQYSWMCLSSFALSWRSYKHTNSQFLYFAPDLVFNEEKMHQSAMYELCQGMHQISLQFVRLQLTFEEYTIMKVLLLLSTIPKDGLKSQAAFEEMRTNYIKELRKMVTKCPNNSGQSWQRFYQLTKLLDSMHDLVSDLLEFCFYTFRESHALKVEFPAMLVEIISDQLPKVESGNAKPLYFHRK
# glucocorticoid receptor = target: T2, glucocorticoid receptor (Homo sapiens, UniProt P04150); assay: Glucocorticoid receptor activity (GR potency) of corticosterones; conditions: relative potency, hydrocortisone (cortisol) = 1
# T2 sequence (P04150 1-777): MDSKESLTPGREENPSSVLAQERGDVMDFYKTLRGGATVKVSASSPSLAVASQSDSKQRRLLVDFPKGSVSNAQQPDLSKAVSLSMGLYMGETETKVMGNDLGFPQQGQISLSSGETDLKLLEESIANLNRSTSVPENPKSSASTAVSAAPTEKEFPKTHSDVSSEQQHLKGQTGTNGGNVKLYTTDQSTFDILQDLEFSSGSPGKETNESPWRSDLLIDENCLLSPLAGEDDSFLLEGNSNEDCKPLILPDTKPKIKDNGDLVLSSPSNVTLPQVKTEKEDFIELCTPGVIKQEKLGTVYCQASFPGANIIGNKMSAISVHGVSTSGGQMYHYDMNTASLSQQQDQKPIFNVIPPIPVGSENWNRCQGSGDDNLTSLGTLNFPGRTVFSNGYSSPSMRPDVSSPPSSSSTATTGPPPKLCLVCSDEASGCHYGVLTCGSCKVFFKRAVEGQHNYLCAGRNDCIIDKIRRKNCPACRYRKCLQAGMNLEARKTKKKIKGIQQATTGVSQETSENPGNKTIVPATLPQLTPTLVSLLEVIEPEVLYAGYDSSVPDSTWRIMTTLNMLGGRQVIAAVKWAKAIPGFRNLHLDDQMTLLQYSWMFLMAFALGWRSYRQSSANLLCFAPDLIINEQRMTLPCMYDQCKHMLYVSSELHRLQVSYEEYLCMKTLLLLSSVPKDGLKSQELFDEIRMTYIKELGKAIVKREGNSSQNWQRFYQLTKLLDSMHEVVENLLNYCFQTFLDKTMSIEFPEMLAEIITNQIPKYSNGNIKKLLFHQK
# [9] = Aqueous solubility and solubility enhancement with hydroxy-propyl β-cyclodextrin in saline
# From the text: FIG. 1: Solubility enhancement for MR compounds and TA in saline with addition of hydroxy propyl β-cyclodextrin (data are mean±sd, n=3). Top: FLU and TA; Bottom: 11-DC; DCS and DCSA.
# [10] = Stability of dry drug powders under gamma irradiation; format: physicochemical; conditions: 25 kGy
# From the text: The poor stability of most drugs under either autoclave or gamma irradiation when in contact with aqueous diluent led to a further set of stability studies to test the effect of gamma irradiation on the dry drug powders, with a view to providing the study materials as sterile powders for reconstitution immediately prior to administration.
# [11] = tested on: New Zealand albino rabbit eyes; conditions: cited from earlier work
# [12] = Duration of action (t1/2); conditions: in vivo; read-out: Duration of action (t1/2 in hours) (converted)
smiles,measurement,setting,value
"C[C@]12CCC(=O)C=C1CC[C@@H]1[C@@H]2CC[C@@]2(C)[C@H]1CC[C@]2(O)C(=O)CO [11-DC, 11-deoxycortisol]",Av Drug Content per vial,[1],Av Drug RGA40/1 20.0 ± 2.0 mg 18.4 ± 0.5 27 Oct. 2006 Passed
same,initial drug content remaining after gamma irradiation,[2],less than 20%
same,stability of aqueous solution to autoclave conditions,[3],stable
same,"D(v, 0.5)",[4],81 microns
same,"D(v, 0.9)",[4],233 microns
same,Particle Size D(0.5),[5],Particle RGA40/2 D(0.5) = <20 7.1 3 Nov. 2006 Passed
same,Particle Size D(0.9),[5],Size D(0.9) = <30 25
same,"drug concentration remaining, % of original concentration",[6],> 90%
same,pH,[7],pH RGA40/3 6.0-8.0 7.0 3 Nov. 2006 Passed
C[C@]12CCC(=O)C=C1CC[C@@H]1[C@@H]2[C@@H](O)C[C@]2(C=O)[C@@H](C(=O)CO)CC[C@@H]12 [Aldosterone],MR potency,[8],200-1000
same,GR potency,glucocorticoid receptor,0.3
C[C@H]1C[C@H]2[C@@H]3CCC4=CC(=O)C=C[C@]4(C)[C@@]3(Cl)[C@@H](O)C[C@]2(C)[C@@]1(O)C(=O)CO [Beclometasone],GR potency,glucocorticoid receptor,8 puffs 4 times a day;
C[C@]12CCC(=O)C=C1CC[C@@H]1[C@@H]2C(=O)C[C@@]2(C)[C@H]1CC[C@]2(O)C(=O)CO [Cortisone],MR potency,[8],0.8
same,GR potency,glucocorticoid receptor,0.8
"C[C@]12CC[C@H]3[C@@H](CCC4=CC(=O)CC[C@@]43C)[C@@H]1CC[C@@H]2C(=O)CO [DCS, Deoxycorticosterone]",Av Drug Content per vial,[1],Av Drug RGA40/1 20.0 ± 2.0 mg 18.5 ± 0.7 1 Nov. 2006 Passed
same,stability of aqueous solution to autoclave conditions,[3],stable
same,"D(v, 0.5)",[4],22 microns
same,"D(v, 0.9)",[4],80 microns
same,Particle Size D(0.5),[5],Particle RGA40/2 D(0.5) = <20 12.7 3 Nov. 2006 Passed
same,Particle Size D(0.9),[5],Size D(0.9) = <30 30.0
same,solubility relative to 11-DC and DCSA,[9],4-8 fold
same,concentration in solution,[9]; saline with 50 mM HP-βCD,> 8000 µg/mL
same,pH,[7],pH RGA40/3 6.0-8.0 7.0 3 Nov. 2006 Passed
"CC(=O)OCC(=O)[C@H]1CC[C@H]2[C@@H]3CCC4=CC(=O)CC[C@]4(C)[C@H]3CC[C@]12C [DCSA, deoxycorticosterone acetate]",MR potency,[8],20
same,stability of dry powder to gamma sterilization (drug content vs non-irradiated control),[10],slight reduction in drug content
same,Av Drug Content per vial,[1],Av Drug RGA40/1 20.0 ± 2.0 mg 16 ± 0.9 2 Nov. 2006 Failed•
same,stability of aqueous solution to gamma irradiation,[2],completely degraded
same,stability of aqueous solution to autoclave conditions,[3],completely degraded to DCS
same,"D(v, 0.5)",[4],52 microns
same,"D(v, 0.9)",[4],226 microns
same,GR potency,glucocorticoid receptor,0
same,Particle Size D(0.5),[5],Particle RGA40/2 D(0.5) = <20 8.25 3 Nov. 2006 Passed
same,Particle Size D(0.9),[5],Size D(0.9) = <30 26.77
same,aqueous solubility relative to the other compounds,[9],very low
same,plateau concentration in solution,[9]; 48 h,around 2 mg/mL
same,solubility,"[9]; aqueous with cosolvent or surfactant or cyclodextrin, thermodynamic from solid",> 6000 µg/mL
same,pH,[7],pH RGA40/3 6.0-8.0 7.0 3 Nov. 2006 Passed
"C[C@]12CCC(=O)C=C1CC[C@H]1[C@@H]3CC[C@](O)(C(=O)CO)[C@@]3(C)C[C@H](O)[C@@]12F [FLU, fludrocortisone]",ERG in the other groups / other eyes,"[11]; intravitreal 400 μg, 1 mg, 2 mg/0.1 ml and remaining eyes, two weeks after injection",no significant decrease in ERG
same,eyes with decreases in ERG,"[11]; intravitreal 4 mg/0.1 ml, two weeks after injection",One
same,eyes with vitreous hemorrhage,[11]; intravitreal 4 mg/0.1 ml,one
same,"signs of retinal toxicity on slit-lamp examination, indirect ophthalmoscopy or light microscopy","[11]; rabbit, in vivo",no signs of retinal toxicity
same,stability of aqueous solution to autoclave conditions,[3],partly degraded
same,"drug concentration remaining, % of original concentration","[6]; saturated solution in saline, 60° C., after two weeks",20%
same,stability in saline over time,"[6]; saturated solution in saline, 60° C., up to 14 days",marked instability
"C[C@]12CCC(=O)C=C1CC[C@@H]1[C@@H]2[C@@H](O)C[C@@]2(C)[C@H]1CC[C@]2(O)C(=O)CO [Hydrocortisone (cortisol), Hydrocortisone]",MR potency,[8],1
same,GR potency,glucocorticoid receptor,1
same,half-life,[12],8 h
C[C@H]1C[C@@H]2[C@H]([C@@H](O)C[C@@]3(C)[C@H]2CC[C@]3(O)C(=O)CO)[C@@]2(C)C=CC(=O)C=C12 [Methylprednisolone],half-life,[12],18 to 40 h
C[C@]12C=CC(=O)C=C1CC[C@@H]1[C@@H]2[C@@H](O)C[C@@]2(C)[C@H]1CC[C@]2(O)C(=O)CO [Prednisolone],MR potency,[8],0.8
same,GR potency,glucocorticoid receptor,4
same,half-life,[12],16 to 36 h
C[C@]12C=CC(=O)C=C1CC[C@@H]1[C@@H]2C(=O)C[C@@]2(C)[C@H]1CC[C@]2(O)C(=O)CO [Prednisone],MR potency,[8],0.8
same,half-life,[12],16 to 36 h
"CC1(C)O[C@@H]2C[C@H]3[C@@H]4CCC5=CC(=O)C=C[C@]5(C)[C@@]4(F)[C@@H](O)C[C@]3(C)[C@]2(C(=O)CO)O1 [TA, triamcinolone acetonide]",stability of aqueous solution to autoclave conditions,[3],moderately stable
same,absolute solubility (compared with FLU),[9],lower overall
same,aqueous solubility relative to the other compounds,[9],very low
C[C@]12C=CC(=O)C=C1CC[C@H]1[C@@H]3C[C@@H](O)[C@](O)(C(=O)CO)[C@@]3(C)C[C@H](O)[C@@]12F [Triamcinolone],MR potency,[8],0
same,GR potency,glucocorticoid receptor,5
same,half-life,[12],12 to 36 h
